According to patent US6944493B2 (priority 1999, dated 2005):

Assays:
Viscosity evaluation = format: physicochemical; settings: ICG 50 mg/ml to 75 mg/ml, WFI as the lone diluent

SMILES | solubility in WFI (non-lyophilized, crystalline material) | consistency of composition (Viscosity evaluation) | solubility in WFI versus inventive diluent (lyophilized (amorphous) material)
CC1(C)C(/C=C/C=C/C=C/C=C2\N(CCCCS(=O)(=O)O)c3ccc4ccccc4c3C2(C)C)=[N+](CCCCS(=O)(=O)[O-])c2ccc3ccccc3c21 [crystalline ICG, Indocyanine green] | low solubility in WFI | – | –
CC1(C)C(/C=C/C=C/C=C/C=C2\N(CCCCS(=O)(=O)O)c3ccc4ccccc4c3C2(C)C)=[N+](CCCCS(=O)(=O)[O-])c2ccc3ccccc3c21 [ICG, Indocyanine green] | – | paste-like consistency | comparable up to 25 mg/ml, wherein the inventive diluent is superior at concentrations above that level
